Measured values taken from PubChem BioAssay (NCI).
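1) Cells in 96-well plates. 2) Compound, 48 h, 5 concentrations. 3) Linear interpolation between surrounding doses. 4) Unreached endpoint = highest concentration. The concentration for 50% growth inhibition is given as GI50. TGI marks complete inhibition of growth.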

Columns and labels:
Assay in all cases: inhibition of tumour cell growth, NCI panel, 48 h
[1] = test system: U251 CNS
[2] = test system: HS 578T breast
[3] = test system: MALME-3M melanoma
[4] = test system: SNB-75 CNS
[5] = test system: UACC-62 melanoma
[6] = test system: SK-MEL-28 melanoma
[7] = test system: HT29 colon
[8] = test system: OVCAR-8 ovarian
[9] = test system: UO-31 renal
[10] = test system: NCI-H23 lung

## O=C(O)C(O)C(O)C(O)C(=O)CO (centres undefined)
[1]
  TGI: > 100 µM
[2]
  TGI: > 100 µM
[3]
  TGI: > 100 µM
[4]
  TGI: > 100 µM
[5]
  TGI: > 100 µM
[6]
  TGI: > 100 µM
[7]
  TGI: > 100 µM
[8]
  TGI: > 100 µM
[9]
  TGI: > 100 µM
[10]
  TGI: > 100 µM

## Nc1ccc(-c2nc3cc(F)ccc3s2)cc1CO
[1]
  TGI: 41.5 µM
[2]
  TGI: > 100 µM
[3]
  TGI: > 100 µM
[4]
  TGI: 36.8 µM
[5]
  TGI: > 58.7 µM
[6]
  TGI: > 100 µM
[7]
  TGI: > 100 µM
[8]
  TGI: > 100 µM
[9]
  TGI: > 100 µM
[10]
  TGI: 42.1 µM

## O=S(=O)(O)c1cc(N=[N+]([O-])c2cc(S(=O)(=O)O)c3ccccc3c2)cc2ccccc12
[1]
  TGI: > 100 µM
[2]
  TGI: > 100 µM
[3]
  TGI: > 100 µM
[4]
  TGI: 30 µM
[5]
  TGI: > 100 µM
[6]
  TGI: > 100 µM
[7]
  TGI: > 100 µM
[8]
  TGI: > 100 µM
[9]
  TGI: 50.2 µM
[10]
  TGI: 77 µM

## Cc1ccccc1NC(=O)CC(=O)N1N=C(N2c3ccccc3Sc3ccccc32)CC1c1ccccc1 (centres undefined)
[1]
  TGI: > 100 µM
[3]
  TGI: > 100 µM
[4]
  TGI: > 100 µM
[5]
  TGI: > 100 µM
[6]
  TGI: > 100 µM
[7]
  TGI: > 100 µM
[8]
  TGI: > 100 µM
[9]
  TGI: > 100 µM
[10]
  TGI: > 100 µM

## O=C1/C(=C\c2ccc(F)cc2)CCOc2c1ccc1ccccc21
[1]
  TGI: > 100 µM
[2]
  TGI: > 84.9 µM
[3]
  TGI: 37.7 µM
[4]
  TGI: > 66.1 µM
[5]
  TGI: > 100 µM
[6]
  TGI: > 71.1 µM
[7]
  TGI: > 56.8 µM
[8]
  TGI: 35.2 µM
[9]
  TGI: > 100 µM
[10]
  TGI: 39.4 µM

## COc1ccc(C2c3cc4c(cc3OC(O)(CO)C2C(=O)O)OCO4)cc1 (centres undefined) (tested in a mixture with another compound)
[1]
  TGI: 36.5 µM
[3]
  TGI: 75.9 µM
[4]
  TGI: 78.3 µM
[5]
  TGI: 36.4 µM
[6]
  TGI: 43.8 µM
[7]
  TGI: 52.4 µM
[8]
  TGI: 48.5 µM
[9]
  TGI: > 100 µM
[10]
  TGI: 50.8 µM

## O=c1[nH]c(Nc2ccc(Cl)cc2)nc2nc[nH]c12
[1]
  TGI: > 100 µM
[2]
  TGI: 92.2 µM
[3]
  TGI: > 100 µM
[4]
  TGI: > 100 µM
[5]
  TGI: > 100 µM
[6]
  TGI: > 100 µM
[7]
  TGI: > 100 µM
[8]
  TGI: > 100 µM
[10]
  TGI: > 100 µM

## C1=CC(=[N+]2N=C(c3ccccc3)CC2c2ccccc2)C=CC1=C1SC(c2ccccc2)(c2ccccc2)c2ccccc21 (centres undefined)
[1]
  TGI: > 100 µM
[2]
  TGI: > 100 µM
[3]
  TGI: > 100 µM
[5]
  TGI: > 100 µM
[6]
  TGI: > 100 µM
[7]
  TGI: > 100 µM
[8]
  TGI: > 100 µM
[9]
  TGI: > 100 µM
[10]
  TGI: > 100 µM

## O=C1c2ccccc2C(C2c3ccccc3C(=O)c3cc(Br)ccc32)c2ccc(Br)cc21 (centres undefined)
[1]
  TGI: > 100 µM
[2]
  TGI: > 100 µM
[3]
  TGI: > 100 µM
[4]
  TGI: > 100 µM
[5]
  TGI: > 100 µM
[6]
  TGI: > 100 µM
[7]
  TGI: > 100 µM
[8]
  TGI: > 100 µM
[9]
  TGI: > 100 µM
[10]
  TGI: > 100 µM

## CC(C)C1OC(=O)/C=C/C=C/C=C/C=C/C=C/CC(O)C(C)C(O)CC(O)CC(O)CC(O)CC(O)CC(O)CC(O)/C=C/C1C (centres undefined)
[1]
  TGI: > 100 µM
[2]
  TGI: > 100 µM
[3]
  TGI: > 100 µM
[4]
  TGI: > 100 µM
[5]
  TGI: > 100 µM
[6]
  TGI: > 100 µM
[7]
  TGI: > 100 µM
[8]
  TGI: > 100 µM
[9]
  TGI: > 100 µM
[10]
  TGI: > 100 µM

## CSCCC(NC(=O)OCc1ccccc1)P(=O)(O)c1ccccc1 (centres undefined)
[1]
  TGI: > 100 µM
[2]
  TGI: > 100 µM
[4]
  TGI: > 100 µM
[6]
  TGI: > 100 µM
[7]
  TGI: > 100 µM
[8]
  TGI: > 100 µM
[9]
  TGI: > 100 µM
[10]
  TGI: > 100 µM

## CCOC(=O)C(=O)NCCCN1CCOCC1
[1]
  TGI: > 100 µM
[3]
  TGI: > 100 µM
[4]
  TGI: > 100 µM
[5]
  TGI: > 100 µM
[6]
  TGI: > 100 µM
[7]
  TGI: > 100 µM
[8]
  TGI: > 100 µM
[9]
  TGI: > 100 µM
[10]
  TGI: > 100 µM

## CCCN1C(=O)CSC1=Nc1ccc2cc3ccc(N=C4SCC(=O)N4CCC)cc3nc2c1
[1]
  GI50: 48.2 µM
  TGI: > 100 µM
[2]
  GI50: 35.8 µM
  TGI: > 100 µM
[3]
  GI50: 17.5 µM
  TGI: 81.7 µM
[4]
  GI50: 22.3 µM
  TGI: > 100 µM
[5]
  GI50: 85.9 µM
  TGI: > 100 µM
[6]
  GI50: > 100 µM
  TGI: > 100 µM
[7]
  GI50: 90.6 µM
  TGI: > 100 µM
[8]
  GI50: 50.7 µM
  TGI: > 100 µM
[9]
  GI50: 41.1 µM
  TGI: > 100 µM
[10]
  GI50: 71.1 µM
  TGI: > 100 µM

## C/C(N=Nc1nc2ccccc2[nH]1)=C1/C=CC=CN1O
[1]
  TGI: > 100 µM
[2]
  TGI: > 100 µM
[3]
  TGI: > 100 µM
[5]
  TGI: > 100 µM
[6]
  TGI: > 100 µM
[7]
  TGI: > 100 µM
[8]
  TGI: > 100 µM
[9]
  TGI: > 100 µM
[10]
  TGI: > 100 µM

## COC(=S)OC1CC(n2cnc3c(N)ncnc32)OC1CO[Si](C)(C)C(C)(C)C (centres undefined)
[1]
  TGI: 28.1 µM
[3]
  TGI: 66.8 µM
[5]
  TGI: 24 µM
[6]
  TGI: 96.7 µM
[7]
  TGI: 30.1 µM
[8]
  TGI: 69.5 µM
[9]
  TGI: 40.8 µM
[10]
  TGI: 38.7 µM

## O=C1CC2(CCC(O)(c3cccs3)C(C(=O)c3cccs3)C2)C(=O)c2ccccc2N1 (centres undefined)
[1]
  TGI: > 100 µM
[2]
  TGI: > 100 µM
[3]
  TGI: > 100 µM
[4]
  TGI: > 100 µM
[5]
  TGI: > 100 µM
[7]
  TGI: > 100 µM
[8]
  TGI: > 100 µM
[9]
  TGI: > 100 µM
[10]
  TGI: > 100 µM

## COC1CC(CC2CCC(C)C(C(C)C(=O)O)O2)OC2(OC(C)(C3CCC(C)(C4OC(C5OC(O)(CO)C(C)CC5C)CC4C)O3)CC2C)C1C (centres undefined)
[1]
  TGI: 11.9 µM
[2]
  TGI: > 35.2 µM
[3]
  TGI: 0.798 µM
[4]
  TGI: 8.7 µM
[5]
  TGI: 4.44 µM
[6]
  TGI: 6.66 µM
[7]
  TGI: 27.4 µM
[8]
  TGI: 41.3 µM
[9]
  TGI: 33.8 µM
[10]
  TGI: 8.76 µM
